As a reminder, the IC50 is the midpoint of a concentration-inhibition curve. As usually defined, the inhibition is the drop in the measured response relative to a control, in per cent.

Each structure is given as a SMILES string.

The record followed here is patent US7196110B2, “N-substituted tricyclic 3-aminopyrazoles as inhibitors for the treatment of cell proliferative disorders” (Janssen Phamaceutica N.V., priority 2002, dated 2007).

The target in assay [1] is c-Abl kinase (Abelson murine leukemia virus, UniProt P00521). Put plainly: Inhibition of c-Abl kinase activity (cell-free, Abl peptide substrate, 33P Flashplate). It is filed as biochemical. The conditions noted are these: IC50 for the c-Abl kinase activity. The protocol: The inhibitory activity of compounds within the scope of the invention on c-Abl kinase activity was tested according to the following procedure.
Chain of c-Abl kinase (P00521 115-385): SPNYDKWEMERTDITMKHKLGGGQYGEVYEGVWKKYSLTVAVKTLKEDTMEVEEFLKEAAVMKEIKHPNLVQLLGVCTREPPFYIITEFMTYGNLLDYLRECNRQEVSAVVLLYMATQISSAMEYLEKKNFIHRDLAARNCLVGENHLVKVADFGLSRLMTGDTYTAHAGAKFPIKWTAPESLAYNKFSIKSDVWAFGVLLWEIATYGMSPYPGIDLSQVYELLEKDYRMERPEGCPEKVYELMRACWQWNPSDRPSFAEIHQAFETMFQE
• 1. 10× Kinase Buffer [500 mM Tris-HCl pH=8, 100 mM MgCl2, 1 mM Na3VO4] • 2. 10 mM DTT [final concentration 1 mM] • 3. 10 mM ATP [final concentration 5 μM] (Gibco, Cat No:18330-019, Carlsbad, Calif.) • 4. ^33P-γ-ATP [NEG-602H; 2000–3000 Ci/mmol], 2 μCuries per well at 10 μCi/μl (0.2 μl/well) • 5. Abl enzyme (New England Biolabs, Cat No. P6050L, Beverly, Mass.) at 100 Units/μl use 10 Units/well (0.1 μl/well) • 6. Enzyme Dilution Buffer [50 mM Tris-HCl pH=8.0, 0.1% BSA] • 7. Wash/Stop Buffer [PBS+100 mM EDTA] • 8. NEN Streptavidin Flashplates (New England Nuclear, Cat No. SMP-103, Boston, Mass.). • 9. Abl Peptide Substrate (Biotin-[…]-amide) at 1 mM in 50 mM Tris-HCL pH=8.0. (Use at 1.0 μM). Procedure
Reagents were first mixed according to the following regimen:
The above reaction mixture was dispensed into each well of a Flashplate at 70 μl/well. To test the effect of a compound on Abl kinase activity, the test compound either in a fixed concentration or in serially diluted concentrations in 100% DMSO was added to appropriate wells at 1 μl/well.
Enzyme Abl was diluted in enzyme dilution buffer as following:
The kinase reaction was started by adding 30 μl of diluted Abl enzyme solution to each well on the Flashplate containing hot ATP (2 μCi/well) and Abl peptide substrate (at 1 μM final conc.), except wells of column 12 rows E and F, which were used to calculate the plate background. The Flashplate was swirled to mix and was incubated at 30° C. for 60 minutes. Then, the reaction mixture was discarded and the Flashplate was washed 3 times each with 200 μL Wash/Stop Buffer. Subsequently, each well on the Flashplate was filled with 200 μl of Wash/Stop buffer. The amount of ^33P retained in each well was measured using a Packard TopCount after the plate was sealed with a transparent plate sealer.
In order to test the potency of inhibition of present compounds, an IC50 for an individual compound was measured using the above procedure. As used herein, the IC50 for c-Abl kinase activity refers to the concentration of an inhibitor at which the activity of c-Abl kinase is reduced by one-half as compared with reactions containing no inhibitor.

Assay [2] addresses T1, PDGF-receptor beta enzyme comprising the tyrosine kinase domain (Homo sapiens, UniProt P09619).
T1 construct: from amino acid 545 to 1106 of GenBank Access NO: AAA36427
Put plainly: Inhibition of PDGF-receptor kinase activity (cell-free, PLC1 peptide, 33P Flashplate). The assay is classed as biochemical. The following applies: PDGF-R kinase activity; for inhibition at 10 µM: compound at 10 uM, read-out: Percent Inhibition @ 10 uM; for IC50: read-out: IC50. An outline of the steps: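 Recombinant kinase domain (aa 545–1106) phosphorylated a biotinylated PLC1 peptide with 5 μM ATP plus 33P-γ-ATP, in Tris pH 8, MgCl2, Na3VO4 and 1 mM DTT, for 60 min at 30 °C. Retained 33P was counted after washing. IC50 is the concentration halving activity versus no-inhibitor reactions.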

T1 sequence (P09619 545-1106): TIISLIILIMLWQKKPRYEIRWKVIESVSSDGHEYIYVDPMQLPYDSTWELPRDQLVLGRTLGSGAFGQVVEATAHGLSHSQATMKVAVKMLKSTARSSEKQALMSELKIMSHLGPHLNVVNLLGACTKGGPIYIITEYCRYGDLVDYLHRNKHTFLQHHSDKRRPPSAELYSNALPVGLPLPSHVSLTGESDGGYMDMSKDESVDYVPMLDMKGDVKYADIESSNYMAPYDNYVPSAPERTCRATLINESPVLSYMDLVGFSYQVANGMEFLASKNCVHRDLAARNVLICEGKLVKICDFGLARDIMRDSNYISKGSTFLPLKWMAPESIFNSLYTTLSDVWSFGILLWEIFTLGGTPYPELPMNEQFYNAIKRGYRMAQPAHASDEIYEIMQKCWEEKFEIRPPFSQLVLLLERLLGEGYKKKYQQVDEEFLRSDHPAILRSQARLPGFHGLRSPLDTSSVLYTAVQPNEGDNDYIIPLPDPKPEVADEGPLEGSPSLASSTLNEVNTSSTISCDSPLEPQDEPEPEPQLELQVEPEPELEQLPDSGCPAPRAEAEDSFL

`COc1cc2c(cc1OC)-c1n[nH]c(Nc3cc(F)cc(F)c3)c1C2` [Compound 207, (3,5-Difluoro-phenyl)-(6,7-dimethoxy-2,4-dihydro-indeno[1,2-c]pyrazol-3-yl)-amine]: the IC50 in assay [1] came to 62 nM. Moreover, in assay [2], the inhibition at 10 µM stood at 89% and the IC50 was found to be 10 nM.

As for `COc1cc2c(cc1OC)-c1n[nH]c(Nc3ccc(OCc4ccccc4)cc3)c1C2` [Compound 218, (4-Benzyloxy-phenyl)-(6,7-dimethoxy-2,4-dihydro-indeno[1,2-c]pyrazol-3-yl)-amine], the IC50 in assay [1] was 439 nM. In addition, in assay [2], the inhibition at 10 µM was 81% and the IC50 was 2010 nM.

As for `COc1cc2c(cc1OCC(O)CN1CCCC1)Cc1c-2n[nH]c1Nc1ccc(F)c(Cl)c1` (centres unmarked) [Compound 280, 1-[3-(3-Chloro-4-fluoro-phenylamino)-7-methoxy-2,4-dihydro-indeno[1,2-c]pyrazol-6-yloxy]-3-pyrrolidin-1-yl-propan-2-ol], the IC50 in assay [1] turned out to be 363 nM. In addition, in assay [2], the inhibition at 10 µM was 102% and the half-inhibitory concentration (IC50) amounted to 1.72 nM.

Take `Fc1ccc(Nc2[nH]nc3c2oc2ccccc23)cc1Cl` [Compound 381, (3-Chloro-4-fluoro-phenyl)-(2H-8-oxa-2,3-diaza-cyclopenta[a]inden-1-yl)-amine]: in assay [1], the IC50 was 1500 nM. In assay [2], the inhibition at 10 µM was found to be 100% and the IC50 stood at 54.9 nM.

For the compound `Nc1ccc2c(c1)Cc1c-2n[nH]c1Nc1cccc(Cl)c1` [Compound 119, N3-(3-Chloro-phenyl)-2,4-dihydro-indeno[1,2-c]pyrazole-3,6-diamine], the IC50 in assay [1] amounted to 524 nM. In assay [2], the inhibition at 10 µM worked out at 90% and the IC50 came to 19.8 nM.

Take `COc1cc2c(cc1F)Cc1c-2n[nH]c1Nc1ccc(F)cc1` [Compound 361, (6-Fluoro-7-methoxy-2,4-dihydro-indeno[1,2-c]pyrazol-3-yl)-(4-fluoro-phenyl)-amine]: the IC50 is 43 nM in assay [1] and 11.6 nM in assay [2]. Besides, the inhibition at 10 µM in assay [2] was 100%.

On to `CN(C)CCCOc1ccc2c(c1)Cc1c-2n[nH]c1Nc1cccc(F)c1` [Compound 160, [6-(3-Dimethylamino-propoxy)-2,4-dihydro-indeno[1,2-c]pyrazol-3-yl]-(3-fluoro-phenyl)-amine], for which the IC50 in assay [1] is 1020 nM; in assay [2] it was 58.5 nM. Besides, the inhibition at 10 µM in assay [2] is 94.5%.

For `COc1cc2c(cc1OCCCN1CCCC1)Cc1c-2n[nH]c1Nc1cccc(F)c1` [Compound 180, (3-Fluoro-phenyl)-[7-methoxy-6-(3-pyrrolidin-1-yl-propoxy)-2,4-dihydro-indeno[1,2-c]pyrazol-3-yl]-amine], the IC50 in assay [1] was determined as 82 nM. In assay [2], the inhibition at 10 µM was found to be 98.5% and the half-inhibitory concentration (IC50) stood at 13.3 nM.

Regarding `COc1cc2c(cc1F)Cc1c-2n[nH]c1Nc1cccc(Br)c1` [Compound 358, (3-Bromo-phenyl)-(6-fluoro-7-methoxy-2,4-dihydro-indeno[1,2-c]pyrazol-3-yl)-amine], the IC50 in assay [1] came to 338 nM. In assay [2], the inhibition at 10 µM amounted to 92% and the IC50 came to 8.77 nM.

`Fc1ccc(F)c(Nc2[nH]nc3c2Cc2ccccc2-3)c1` [Compound 339, (2,5-Difluoro-phenyl)-(2,4-dihydro-indeno[1,2-c]pyrazol-3-yl)-amine]: in assay [1], the IC50 was determined as 2180 nM. In assay [2], the inhibition at 10 µM is 100% and the IC50 is 117 nM.

In the case of `COc1cc2c(cc1OCCCN1CCOCC1)Cc1c-2n[nH]c1Nc1ccc(F)c(Cl)c1` [Compound 179, (3-Chloro-4-fluoro-phenyl)-[7-methoxy-6-(3-morpholin-4-yl-propoxy)-2,4-dihydro-indeno[1,2-c]pyrazol-3-yl]-amine], the IC50 in assay [1] turned out to be 870 nM; in assay [2], 71.2 nM. Besides, the inhibition at 10 µM in assay [2] is 92%.

Take `COc1cc2c(cc1OCCCO)Cc1c-2n[nH]c1Nc1cccc(F)c1` [Compound 265, 3-[3-(3-Fluoro-phenylamino)-7-methoxy-2,4-dihydro-indeno[1,2-c]pyrazol-6-yloxy]-propan-1-ol]: the IC50 in assay [1] turned out to be 85 nM. Further, in assay [2], the inhibition at 10 µM came out at 63% and the IC50 amounted to 5.53 nM.

With `COc1cccc(Nc2[nH]nc3c2Cc2cc(OCC(O)CN4CCCC4)c(OC)cc2-3)c1` (centres unmarked) [Compound 270, 1-[7-Methoxy-3-(3-methoxy-phenylamino)-2,4-dihydro-indeno[1,2-c]pyrazol-6-yloxy]-3-pyrrolidin-1-yl-propan-2-ol], the IC50 in assay [1] was 36 nM; in assay [2], 0.429 nM. In addition, the inhibition at 10 µM in assay [2] was determined as 107%.

In the case of `CCOc1cc2c(cc1OCCCO)Cc1c-2n[nH]c1Nc1cccc(F)c1` [Compound 382, 3-[7-Ethoxy-3-(3-fluoro-phenylamino)-2,4-dihydro-indeno[1,2-c]pyrazol-6-yloxy]-propan-1-ol], the IC50 in assay [1] stood at 19 nM. In addition, in assay [2], the inhibition at 10 µM stood at 100% and the IC50 is 11.9 nM.

As to `COc1cccc2c1Cc1c-2n[nH]c1Nc1ccccc1` [Compound 8], in assay [1], the IC50 worked out at 694 nM. Moreover, in assay [2], the inhibition at 10 µM turned out to be 98% and the IC50 was determined as 54 nM.

As to `CCc1cccc(Nc2[nH]nc3c2Cc2cc(OC)c(OC)cc2-3)c1` [Compound 209, (6,7-Dimethoxy-2,4-dihydro-indeno[1,2-c]pyrazol-3-yl)-(3-ethyl-phenyl)-amine], in assay [1], the IC50 came out at 7 nM. Further, in assay [2], the inhibition at 10 µM was determined as 99% and the IC50 was 32.8 nM.

On to `COc1cc2c(cc1OCCCn1ccnc1)Cc1c-2n[nH]c1Nc1ccc(F)c(Cl)c1` [Compound 227, (3-Chloro-4-fluoro-phenyl)-[6-(3-imidazol-1-yl-propoxy)-7-methoxy-2,4-dihydro-indeno[1,2-c]pyrazol-3-yl]-amine], for which the IC50 in assay [1] is 641 nM. In assay [2], the inhibition at 10 µM was found to be 83.5% and the IC50 is 34.9 nM.

In the case of `COc1cccc(Nc2[nH]nc3c2Cc2cc(OC)c(OC)cc2-3)c1` [Compound 29, (6,7-Dimethoxy-2,4-dihydro-indeno[1,2-c]pyrazol-3-yl)-(3-methoxy-phenyl)-amine], in assay [1], the IC50 came to 5 nM. Further, the inhibition at 10 µM in assay [2] is 99%.

Take `Fc1cccc(Nc2[nH]nc3c2Cc2ccccc2-3)c1` [Compound 337, (2,4-Dihydro-indeno[1,2-c]pyrazol-3-yl)-(3-fluoro-phenyl)-amine]: the IC50 amounted to 2740 nM in assay [1] and 8.8 nM in assay [2]. For the same compound, the inhibition at 10 µM in assay [2] stood at 100%.

Consider `COc1cc2c(cc1OCCCN1CCCC1)Cc1c-2n[nH]c1Nc1ccc(F)c(Cl)c1` [Compound 181, (3-Chloro-4-fluoro-phenyl)-[7-methoxy-6-(3-pyrrolidin-1-yl-propoxy)-2,4-dihydro-indeno[1,2-c]pyrazol-3-yl]-amine], for which, in assay [1], the IC50 amounted to 56 nM. For the same compound, in assay [2], the inhibition at 10 µM stood at 74.5% and the IC50 was 15.4 nM.

`Cc1ccc2c(c1)-c1n[nH]c(Nc3cccc(C(C)O)c3)c1C2` (centres unmarked) [Compound 310, 1-[3-(7-Methyl-2,4-dihydro-indeno[1,2-c]pyrazol-3-ylamino)-phenyl]-ethanol]: the IC50 in assay [1] was found to be 1470 nM; in assay [2] it was 20.2 nM. Besides, the inhibition at 10 µM in assay [2] worked out at 95.5%.

As for `COc1cc2c(cc1OCCCn1ccnc1)Cc1c-2n[nH]c1Nc1cccc(F)c1` [Compound 226, (3-Fluoro-phenyl)-[6-(3-imidazol-1-yl-propoxy)-7-methoxy-2,4-dihydro-indeno[1,2-c]pyrazol-3-yl]-amine], in assay [1], the IC50 worked out at 245 nM. In assay [2], the inhibition at 10 µM stood at 102% and the IC50 is 3 nM.

In the case of `COc1cc2c(cc1OCCCN(C)C)Cc1c-2n[nH]c1Nc1cccc(F)c1` [Compound 199, [6-(3-Dimethylamino-propoxy)-7-methoxy-2,4-dihydro-indeno[1,2-c]pyrazol-3-yl]-(3-fluoro-phenyl)-amine], the IC50 in assay [1] was determined as 27 nM. Moreover, in assay [2], the inhibition at 10 µM came out at 83% and the IC50 is 5.9 nM.
